Experimental findings from patent US4904682A, “Treating mycoses with triazolylalkanols” (Bayer Aktiengesellschaft, priority 1987, dated 1990) are described below.

Values after ≈ are worked out from the molar mass of the structure shown.

One assay relates to Trichophyton mentagr. Put plainly: Antimycotic in vitro activity, serial dilution test (MIC). The format is cell-based, Trichophyton mentagrophytes. The conditions noted are these: Sabouraud's test medium, 28-37° C., 96 hours, read-out: MIC values in μg/ml of nutrient medium. The method, then:
(§1) The in vitro tests were carried out in a serial dilution test using bacterial inocula of, on average, 5×10^3 to 10^4 bacteria/ml of substrate. Nutrients used were (a) for Dermatophytes and Hyphomycetes: Sabouraud's test medium (b) for yeasts: meat extract/dextrose broth. The incubation temperature was 28° C. to 37° C., and the incubation period was 24 to 96 hours for yeasts and 96 hours for Dermatophytes and Hyphomycetes.

The test system of another assay is Aspergillus fumigatus. Described as above. The format is cell-based. The conditions noted are these: Sabouraud's test medium, 28-37° C., 96 hours, read-out: MIC values in μg/ml of nutrient medium. The method, then: as §1
A further assay relates to Candida albicans. Described as above. The format is cell-based. The following applies: meat extract/dextrose broth, 28-37° C., 24 to 96 hours, read-out: MIC values in μg/ml of nutrient medium. On the procedure: as §1
The next assay concerns Microsporum canis. Described as above. The format is cell-based. The following applies: Sabouraud's test medium, 28-37° C., 96 hours, read-out: MIC values in μg/ml of nutrient medium. The method, then:
as §1

A further assay relates to Torulopsis glabrata. Described as above. The format is cell-based. The following applies: Nakaseomyces glabratus, meat extract/dextrose broth, 28-37° C., 24 to 96 hours, read-out: MIC values in μg/ml of nutrient medium. On the procedure: as §1
Assay [1] has as its system Dermatophytes, Hyphomycetes and yeasts. Description: Antimycotic in vitro activity, serial dilution test (overall statement). The format is cell-based. The following applies: in words. On the procedure:
as §1

The next assay has as its system Candida. Description: Antimycotic in vivo activity (oral) in mouse candidiasis. Details: species or system Mice of the SPF-CF1 type. The conditions noted are these: in words, 25-100 mg/kg. The method, then:
Mice of the SPF-CF1 type are intravenously inoculated with 1-2×10^6 logarithmically growing Candida cells, which have been suspended in physical logical saline solution. One hour before and seven hours after infection, the animals are orally treated with 25-100 mg/kg of body weight of the preparation in each case. Result Untreated animals died 3 to 6 days post infection. The survival rate on the 6th day post infection was about 5% in untreated control animals.

For `CC(C)(C#N)C(O)(CCc1ccc(Cl)cc1)Cn1cncn1` (stereo not drawn) [Compound 2], the MIC was less than 1 µg/mL in the assay with Trichophyton mentagr.; 16 µg/mL (≈ 50.2 µM) in the assay with Aspergillus fumigatus; 16 µg/mL (≈ 50.2 µM) with Candida albicans; 16 µg/mL (≈ 50.2 µM) with Microsporum canis; 16 µg/mL (≈ 50.2 µM) in the assay with Torulopsis glabrata. In addition, in assay [1], the “antimycotic activity in vitro” value is reported as “good antimycotic activity”.

`CC(C)(C#N)C(O)(CSc1ccc(Br)cc1)Cn1cncn1` (stereo not drawn) [Compound 4]: the MIC was less than 1 µg/mL in the assay with Trichophyton mentagr.; 4 µg/mL (≈ 10.5 µM) with Aspergillus fumigatus; 8 µg/mL (≈ 21 µM) in the assay with Candida albicans; 16 µg/mL (≈ 42 µM) in the assay with Microsporum canis; 8 µg/mL (≈ 21 µM) in the assay on Torulopsis glabrata. Besides, the “antimycotic activity in vitro” value in assay [1] is “good antimycotic activity”.

On to `CC(C)(C#N)C(O)(CSc1ccc(Cl)cc1)Cn1cncn1` (stereo not drawn) [Compound 5], for which the MIC was 8 µg/mL (≈ 23.7 µM) in the assay with Trichophyton mentagr., 8 µg/mL (≈ 23.7 µM) with Aspergillus fumigatus, 4 µg/mL (≈ 11.9 µM) in the assay with Candida albicans and 4 µg/mL (≈ 11.9 µM) with Torulopsis glabrata. In addition, in assay [1], the “antimycotic activity in vitro” value is on record as “good antimycotic activity”.

Consider `CC(C)(C#N)C(O)(COc1ccc(-c2ccccc2)cc1)Cn1cncn1` (stereo not drawn) [Compound 7], for which the MIC was less than 1 µg/mL in the assay on Trichophyton mentagr.; 2 µg/mL (≈ 5.52 µM) in the assay with Aspergillus fumigatus; 2 µg/mL (≈ 5.52 µM) in the assay on Candida albicans; less than 1 µg/mL with Microsporum canis; 16 µg/mL (≈ 44.1 µM) in the assay with Torulopsis glabrata. Besides, the “antimycotic activity in vitro” value in assay [1] is given as “good antimycotic activity”.

Regarding `CC(C)(C#N)C(O)(COc1ccc(Cl)cc1)Cn1cncn1` (stereo not drawn) [Compound 8], in the assay with Candida, the “action in mouse candidiasis compared with compounds (A) and (B)” value is “better action than the compounds (A) and (B)”.
